Measured values published in patent US11555012B2 (Nimbus Artemis, Inc., priority 2018, dated 2023).
Like-named read-outs stand apart in the source and are kept apart here.

Legend:
[1] = biological target: ACLY enzyme, from S100 fraction of rat livers (Rattus norvegicus (Rat), UniProt P16638); experiment: rACLY S100 14C-Citrate incorporation assay (IC50 Fatty Acid synthesis); type: biochemical; conditions: rat liver S100 fraction; fatty acid labeling from 14C-citrate; read-out: rACLY S100 14C-Citrate FA IC50
Description: Example 336. rACLY S100 ^14C-Citrate Incorporation Assay (IC50 Fatty Acid Synthesis)
Cell-free preparations of liver can synthesize long-chain fatty acids through a pathway which includes the formation of malonyl co-enzyme A (CoA) from acetyl CoA and CO2. The ACLY enzyme, from S100 fraction of rat livers, can transfer CoA, ATP and Citrate to acetyl-CoA, which is the precursor of fatty acid synthesis. Addition of ^14C-citrate to the S100 fraction enables fatty acid labeling from the ACLY reaction, and thus, the effect of ACLY inhibition can be measured in these preparations.
S100 fractions from rat livers were prepared in order to study the effect of ACLY inhibition on fatty acid synthesis using ^14C-citrate as the radiolabel. Fresh livers were excised and quickly homogenized using a 15 ml dounce homogenizer (D9188-1SET from Sigma) in 1 volume of assay buffer containing 0.25 M sucrose, 1 mM potassium citrate, and protease inhibitor cocktail. Homogenates were centrifuged at 20,000×g for 20 min at 4° C. The supernatant was centrifuged at 100,000×g for 2 hours at 4° C. This fraction is S100. For compound addition, 17.5 μL of compound at the desired concentration was added to 350 μL of S100 fraction solution (derived from 0.5 g fresh liver) in 15 mL centrifuge tubes and exposed to air at 37° C. for 30 min. Radiolabeled [^14C]-citrate (60 μL, 3 μCi) was added per tube, plus 40 μL reaction buffer and 3032.5 μL substrate buffer (diluted with reaction buffer, final conc.: 1 mM ATP, 60 μM CoA, 100 μM non-radiolabeled citrate, 0.5% DMSO). Total reaction volume equaled 3.5 mL and was mixed at 37° C. for 2 hours. At the end of the reaction, each sample was saponified at 70° C. for 120 minutes in 1.5 mL of 2.5M NaOH, then cooled to room temperature. Ethanol (2.5 mL) was added to the tubes, and the solution was mixed and allowed to stand overnight. […] Next, samples were acidified in 15 mL tubes directly with 0.6 mL concentrated HCl, to ensure pH<1. Fatty acids were extracted by adding 5 mL of petroleum ether per tube, the tubes were shaken vigorously, then centrifuged at 1000 rpm for 5 min. […]

HepG2 cells [2] = experiment: ACLY HepG2 14C-Pyruvate incorporation assay with serum (IC50 Cholesterol); type: cell-based; conditions: Homo sapiens, table title: with serum, column head: serum free, 96 well
Description: The protocol below was followed:
(§1) 5. […] 6. […] 7. […] 8. […] 9. Repeat the Step 8 10.

HepG2 cells [3] = conditions: Homo sapiens, HepG2, read-out: ACLY HepG2 14C-Pyruvate Assay serum free IC50 Cholesterol (IC50) [μM]
Description: ACLY HepG2 ^14C-Pyruvate Incorporation Serum-Free Assay (IC50 Cholesterol and Fatty Acid Synthesis)
Compounds of the present invention were evaluated in a HepG2 ^14C-pyruvate incorporation assay. The protocol below was followed:
(§2) After 48 hours, change medium with fresh growth medium.
(§3) After 18 hours, replaced medium using 0.5 mL fresh medium (5.5 mM Glucose, without FBS, 1% PS, without Pyruvate) containing Compounds or 0.5% DMSO, incubated at 37° C., 5% CO2 for 1 hour.
(§4) Add 3 μci of [14C]-pyruvate per well to the cell samples were incubated at 37° C., 5% CO2 for 5 hours.
Medium was removed and placed into a 15 mL centrifuge tube. Add 0.5 mL of 0.1M NaOH to each well and then transfer the cell lysates into the corresponding 15 mL centrifuge tubes. 1.0 mL of EtOH and 0.17 mL 50% KOH were added to 15 mL tubes containing medium and cell suspensions, then shaking tube gently. […] Saponification 15 mL tubes containing medium and cell suspensions were incubated at 90° C. for 1 hour, then cooled to room temperature. […] Cholesterol Extraction 5 mL of petroleum ether was added per tube to extract Cholesterol, shaken vigorously, centrifuged at 1000 rpm for 5 min, and ˜5 mL of the petroleum ether layer was transferred to a new glass tube (18*180 mm). […] Acidification The samples in 15 mL tube were acidified directly with 1 mL concentrated HCl, make sure pH was below 1. […] Fatty Acids Extraction 5 mL of petroleum ether was added per tube, shaken vigorously, centrifuged at 1000 rpm for 5 min, 5 mL of the petroleum ether layer was transferred to the corresponding glass tube. […] Count The petroleum ether extracts were pooled and evaporated to dryness overnight. The residue from the petroleum ether fractions were resuspended in 500 μL of chloroform-hexane (1:1) containing 420 μg of linoleic acid as a carrier. Add 200 μL of resuspending (chloroform-hexane (1:1) containing 168 μg of linoleic acid) to 2 mL Ultima Gold™, after 30 min, count on a scintillation counter.

HepG2 cells [4] = experiment: ACLY HepG2 14C-Pyruvate incorporation assay with serum (IC50 Fatty Acid); type: cell-based; conditions: Homo sapiens, table title: with serum, column head: serum free, 96 well, read-out: ACLY HepG2 14C-Pyruvate Assay serum free IC50 FA 96 well (IC50)
Description: Example 333. ACLY HepG2 ^14C-Pyruvate Incorporation Assay (IC50 Fatty Acid)
as §1

ACL [5] = biological target: T1, ACL (Homo sapiens (Human), UniProt P53396); experiment: ADP-Glo Assay
Target sequence in this assay (P53396 other isoform, or with tags, fused parts or gaps isoform P53396-2): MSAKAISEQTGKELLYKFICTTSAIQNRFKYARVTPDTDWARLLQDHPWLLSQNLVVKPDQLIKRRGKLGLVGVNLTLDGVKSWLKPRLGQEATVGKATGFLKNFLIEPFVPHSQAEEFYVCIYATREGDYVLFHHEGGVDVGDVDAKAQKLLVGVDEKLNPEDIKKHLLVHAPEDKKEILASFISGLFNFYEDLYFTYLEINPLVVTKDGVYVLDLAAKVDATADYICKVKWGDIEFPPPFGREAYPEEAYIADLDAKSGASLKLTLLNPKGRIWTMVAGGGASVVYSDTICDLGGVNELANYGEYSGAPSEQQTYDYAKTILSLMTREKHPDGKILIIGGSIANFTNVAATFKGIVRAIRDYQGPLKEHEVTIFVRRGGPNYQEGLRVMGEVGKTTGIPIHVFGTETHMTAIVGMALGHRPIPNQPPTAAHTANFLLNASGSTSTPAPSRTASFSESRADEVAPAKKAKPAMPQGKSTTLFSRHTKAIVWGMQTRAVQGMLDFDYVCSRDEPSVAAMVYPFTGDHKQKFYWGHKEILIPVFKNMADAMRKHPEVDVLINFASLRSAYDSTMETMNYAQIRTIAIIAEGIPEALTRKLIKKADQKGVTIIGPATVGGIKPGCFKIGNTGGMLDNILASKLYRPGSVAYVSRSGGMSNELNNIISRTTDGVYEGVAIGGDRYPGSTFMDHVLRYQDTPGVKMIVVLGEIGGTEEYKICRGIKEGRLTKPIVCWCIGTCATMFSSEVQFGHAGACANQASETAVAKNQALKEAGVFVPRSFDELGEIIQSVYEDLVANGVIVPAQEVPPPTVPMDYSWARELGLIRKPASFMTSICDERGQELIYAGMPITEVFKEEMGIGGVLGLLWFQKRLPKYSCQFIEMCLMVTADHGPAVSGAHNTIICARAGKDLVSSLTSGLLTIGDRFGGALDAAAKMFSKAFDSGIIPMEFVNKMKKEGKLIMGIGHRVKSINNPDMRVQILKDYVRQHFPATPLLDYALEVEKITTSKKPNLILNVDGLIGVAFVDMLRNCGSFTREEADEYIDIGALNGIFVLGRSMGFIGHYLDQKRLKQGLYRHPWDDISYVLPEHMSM
Description: Compounds of the present invention were evaluated in an ADP-GLO assay as follows:
b) Add 0.1 μL diluted cpd solution to assay plate, each dose with 2 replicates c) Centrifuge 1000 RPM for 1 min d) Add 5 μL ACL working solution to 384-well assay plate, centrifuge 1000 RPM for 1 min e) Incubate at 25° C. for 15 min f) Add 5 μL substrate working solution to initiate reaction
h) Reference final conc: 30 uM starting Conc, 3× dilution, 11+0 points. Test cpd conc: 30/100 uM starting Conc, 3× dilution, 11+0 points. i) Incubate at 25° C. for 60 min j) Add 10 μL ADP Glo reagent, centrifuge 1000 RPM for 1 min k) Incubate at 25° C. for 40 min l) Add 20 μL kinase detection reagent, centrifuge 1000 RPM for 1 min m) Incubate at 25° C. for 40 min n) Read on Envision for US LUM as RLU

HepG2 cells [6] = conditions: Homo sapiens, HepG2, read-out: ACLY HepG2 14C-Pyruvate Assay serum free IC50 FA (IC50) [μM]
Description: ACLY HepG2 ^14C-Pyruvate Incorporation Serum-Free Assay (IC50 Fatty
The protocol of the assay (below) was followed:
as §2, §3, §4
Medium was removed and placed into a 15 mL centrifuge tube. Add 0.5 mL of 0.1M NaOH to each well and then transfer the cell lysates into the corresponding 15 mL centrifuge tubes. 1.0 mL of EtOH and 0.17 mL 50% KOH were added to 15 mL tubes containing medium and cell suspensions, then shaking tube gently. […] Saponification 15 mL tubes containing medium and cell suspensions were incubated at 90° C. for 1 hour, then cooled to room temperature. […] Cholesterol Extraction 5 mL of petroleum ether was added per tube to extract Cholesterol, shaken vigorously, centrifuged at 1000 rpm for 5 min, and ˜5 mL of the petroleum ether layer was transferred to a new glass tube (18*180 mm). […] Acidification The samples in 15 mL tube were acidified directly with 1 mL concentrated HCl, make sure pH was below 1. […] Fatty Acids Extraction 5 mL of petroleum ether was added per tube, shaken vigorously, centrifuged at 1000 rpm for 5 min, 5 mL of the petroleum ether layer was transferred to the corresponding glass tube. […] Repeat the Step 8 10. Count The petroleum ether extracts were pooled and evaporated to dryness overnight. The residue from the petroleum ether fractions were resuspended in 500 μL of chloroform-hexane (1:1) containing 420 μg of linoleic acid as a carrier. Add 200 μL of resuspending (chloroform-hexane (1:1) containing 168 μg of linoleic acid) to 2 mL Ultima Gold™, after 30 min, count on a scintillation counter.

ACL [7] = biological target: T1, ACL; experiment: ACLY-MDH Coupled Assay
Target sequence in this assay (P53396 whole entry, species assumed): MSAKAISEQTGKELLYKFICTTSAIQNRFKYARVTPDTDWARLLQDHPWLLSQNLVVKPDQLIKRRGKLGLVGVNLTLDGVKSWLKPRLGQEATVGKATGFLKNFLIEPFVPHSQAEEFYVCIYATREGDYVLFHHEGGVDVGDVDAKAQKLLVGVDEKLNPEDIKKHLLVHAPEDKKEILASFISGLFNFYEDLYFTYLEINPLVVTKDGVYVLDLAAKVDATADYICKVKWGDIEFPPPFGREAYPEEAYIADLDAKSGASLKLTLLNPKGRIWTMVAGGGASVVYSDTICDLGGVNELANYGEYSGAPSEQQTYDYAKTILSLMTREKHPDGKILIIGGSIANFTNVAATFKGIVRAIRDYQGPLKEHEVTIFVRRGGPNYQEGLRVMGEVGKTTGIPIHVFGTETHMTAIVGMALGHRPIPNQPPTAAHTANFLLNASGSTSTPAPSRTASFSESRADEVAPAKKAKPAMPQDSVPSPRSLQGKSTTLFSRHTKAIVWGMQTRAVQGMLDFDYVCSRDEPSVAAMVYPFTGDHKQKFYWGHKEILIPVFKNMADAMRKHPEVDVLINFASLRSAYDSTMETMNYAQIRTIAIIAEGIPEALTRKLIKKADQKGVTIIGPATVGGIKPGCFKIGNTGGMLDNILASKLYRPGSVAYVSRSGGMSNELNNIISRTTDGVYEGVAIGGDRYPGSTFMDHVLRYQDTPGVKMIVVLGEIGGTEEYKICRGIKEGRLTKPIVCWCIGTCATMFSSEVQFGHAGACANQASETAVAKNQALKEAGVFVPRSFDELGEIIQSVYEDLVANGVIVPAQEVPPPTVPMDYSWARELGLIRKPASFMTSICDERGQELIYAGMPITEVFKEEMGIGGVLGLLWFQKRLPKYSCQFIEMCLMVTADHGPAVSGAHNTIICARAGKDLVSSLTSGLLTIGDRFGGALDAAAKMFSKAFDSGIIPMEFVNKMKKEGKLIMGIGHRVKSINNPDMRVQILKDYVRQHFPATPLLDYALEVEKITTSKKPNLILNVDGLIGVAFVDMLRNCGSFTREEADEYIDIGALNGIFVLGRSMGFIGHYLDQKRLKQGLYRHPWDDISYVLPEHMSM
Description: Compounds of the present invention were evaluated in an ACLY Coupled Assay.
The assay protocol for the Coupled Assay (below) was followed:
b) Add 1 μL cpds to 96 assay plate, Test cpd conc: 100/30/10 μM top dose, 3 folds dilution, 10+0+control (control: buffer without ACL+DMSO) points, 1000 rpm for 1 min, incubation at 25° C. for 60 min

ACC2 = ACC2 isolated from rat, mouse, monkey and human; cited from earlier work
[8] = biological target: propionyl-CoA carboxylase (Homo sapiens (Human), UniProt P05165+P05166); conditions: cited from earlier work
ACC1 = ACC1 isolated from rat, mouse, monkey and human; cited from earlier work
pyruvate carboxylase = pyruvate carboxylase (Homo sapiens (Human), UniProt P11498); conditions: cited from earlier work

ACLY enzyme, from S100 fraction of rat livers, sequence (P16638 whole entry): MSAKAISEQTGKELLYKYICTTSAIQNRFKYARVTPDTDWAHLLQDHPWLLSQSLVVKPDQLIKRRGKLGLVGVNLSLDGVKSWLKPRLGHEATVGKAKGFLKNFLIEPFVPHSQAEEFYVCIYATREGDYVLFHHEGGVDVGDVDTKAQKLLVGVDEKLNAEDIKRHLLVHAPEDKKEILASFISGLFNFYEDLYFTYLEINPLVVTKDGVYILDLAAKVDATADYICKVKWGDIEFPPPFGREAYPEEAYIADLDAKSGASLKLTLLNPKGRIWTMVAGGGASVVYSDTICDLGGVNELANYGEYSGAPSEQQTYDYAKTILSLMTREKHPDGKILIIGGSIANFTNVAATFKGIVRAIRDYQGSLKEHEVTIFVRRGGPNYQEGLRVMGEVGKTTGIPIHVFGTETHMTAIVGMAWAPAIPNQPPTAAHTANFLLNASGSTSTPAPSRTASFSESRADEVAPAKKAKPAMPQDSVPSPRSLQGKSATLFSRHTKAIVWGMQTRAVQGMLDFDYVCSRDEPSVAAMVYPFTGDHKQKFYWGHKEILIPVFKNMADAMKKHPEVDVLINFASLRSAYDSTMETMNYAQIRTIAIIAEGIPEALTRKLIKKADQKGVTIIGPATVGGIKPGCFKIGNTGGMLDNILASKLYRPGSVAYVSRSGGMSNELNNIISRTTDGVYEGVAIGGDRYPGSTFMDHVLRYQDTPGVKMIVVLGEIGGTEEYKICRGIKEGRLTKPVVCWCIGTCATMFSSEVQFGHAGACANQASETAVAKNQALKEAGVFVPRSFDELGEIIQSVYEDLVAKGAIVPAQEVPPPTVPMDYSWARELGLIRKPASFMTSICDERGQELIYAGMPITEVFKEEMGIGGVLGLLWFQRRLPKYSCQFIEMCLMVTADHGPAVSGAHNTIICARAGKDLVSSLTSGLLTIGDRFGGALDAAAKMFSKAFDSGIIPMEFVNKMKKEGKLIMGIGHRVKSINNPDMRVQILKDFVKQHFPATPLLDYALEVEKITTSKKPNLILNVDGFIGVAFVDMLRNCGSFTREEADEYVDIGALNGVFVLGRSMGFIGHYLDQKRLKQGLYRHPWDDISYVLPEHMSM
propionyl-CoA carboxylase, sequence (P05165 53-728): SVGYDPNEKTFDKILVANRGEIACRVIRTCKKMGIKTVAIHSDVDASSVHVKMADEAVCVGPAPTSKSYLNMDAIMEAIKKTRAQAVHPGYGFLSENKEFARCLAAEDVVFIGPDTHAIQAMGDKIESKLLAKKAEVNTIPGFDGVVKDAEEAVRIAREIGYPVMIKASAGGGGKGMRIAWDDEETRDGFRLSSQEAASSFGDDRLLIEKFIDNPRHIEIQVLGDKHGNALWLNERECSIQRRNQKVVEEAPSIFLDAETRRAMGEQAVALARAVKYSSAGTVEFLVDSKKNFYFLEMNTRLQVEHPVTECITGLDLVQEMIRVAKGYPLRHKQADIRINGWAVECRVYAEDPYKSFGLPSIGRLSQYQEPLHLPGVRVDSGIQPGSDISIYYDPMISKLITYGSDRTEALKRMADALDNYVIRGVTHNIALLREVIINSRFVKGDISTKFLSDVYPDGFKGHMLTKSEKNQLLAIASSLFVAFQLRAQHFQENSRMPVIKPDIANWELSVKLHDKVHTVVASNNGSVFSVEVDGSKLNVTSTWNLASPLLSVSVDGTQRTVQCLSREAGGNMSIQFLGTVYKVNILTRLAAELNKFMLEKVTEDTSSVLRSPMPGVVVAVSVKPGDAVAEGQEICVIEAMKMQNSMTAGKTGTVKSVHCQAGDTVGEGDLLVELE
propionyl-CoA carboxylase, sequence (P05166 29-539): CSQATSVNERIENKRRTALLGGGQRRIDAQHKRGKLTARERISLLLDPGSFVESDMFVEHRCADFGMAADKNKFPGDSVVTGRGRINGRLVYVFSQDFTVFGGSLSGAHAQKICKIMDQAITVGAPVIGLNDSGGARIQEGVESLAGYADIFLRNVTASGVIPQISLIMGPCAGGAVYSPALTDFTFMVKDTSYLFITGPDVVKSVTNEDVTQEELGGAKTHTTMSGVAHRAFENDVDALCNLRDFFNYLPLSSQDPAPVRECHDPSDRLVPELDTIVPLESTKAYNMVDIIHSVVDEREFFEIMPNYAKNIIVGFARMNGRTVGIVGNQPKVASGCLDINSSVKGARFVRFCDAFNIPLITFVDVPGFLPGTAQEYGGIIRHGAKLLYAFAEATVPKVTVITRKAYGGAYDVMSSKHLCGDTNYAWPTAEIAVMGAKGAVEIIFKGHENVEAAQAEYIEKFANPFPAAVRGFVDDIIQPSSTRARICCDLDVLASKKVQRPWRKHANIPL

Row | SMILES | IC50 [1] | IC50 (HepG2 cells [2]) | IC50 (HepG2 cells [3]) | IC50 (HepG2 cells [4]) | IC50 (ACL [5]) | IC50 (HepG2 cells [6]) | IC50 (ACL [7]) | IC50 (ACL [5]; read-out: ACL-ADP-Glo (IC50), 3 nM ACL, 15 μM ATP, 3 μM CoA, 300 μM Citrate) | IC50 (ACL [7]; read-out: ACL-MDH Coupled Assay (IC50), 8 nM ACL, 60 μM CoA Na2, 85 μM Citrate, 250 μM ATP, 250 μM NADH) | IC50 (ACC2) | inhibition of propionyl-CoA carboxylase [8] | IC50 (ACC1) | inhibition of pyruvate carboxylase (pyruvate carboxylase)
1 | O=C(Nc1cc(-c2ccccc2)c(F)cc1C(=O)O)c1cc(Cl)cc(Cl)c1 [I-318, 5-(3,5-dichlorobenzamido)-2-fluoro-[1,1′-biphenyl]-4-carboxylic Acid] | 5000 to 20000 nM |  | 1 to 5 µM |  | 500 to 20000 nM | 1 to 10 µM | 500 to 30000 nM |  |  |  |  |  | 
2 | O=C(c1c2ccccc2cc2ccccc12)N1CCC(N2CCC[C@@H](C(=O)N3CCOCC3)C2)CC1 [CP-640186] |  |  |  |  |  |  |  |  |  | ~60 nM | without inhibiting | ~60 nM | without inhibiting
3 | COc1cc(F)c(-c2cc3ccccc3s2)cc1NS(=O)(=O)c1cc(C(=O)N2CCC2)cc(Cl)c1O [I-286] | 1000 to 5000 nM |  | 1 to 5 µM |  |  | 1 to 10 µM |  | < 50 nM | < 50 nM |  |  |  | 
4 | O=C(O)c1ccc(-c2ccccc2)cc1NS(=O)(=O)c1cc(Cl)cc(C(F)(F)F)c1 [I-220, 3-((3-chloro-5-(trifluoromethyl)phenyl)sulfonamido)-[1,1′-biphenyl]-4-carboxylic acid] |  | 1000 to 5000 nM | 1 to 5 µM | 1000 to 5000 nM | 50 to 500 nM | 1 to 10 µM | 50 to 500 nM |  |  |  |  |  | 

More lines, main results first:

Row | IC50 [1] | IC50 (HepG2 cells [2]) | IC50 (HepG2 cells [3]) | IC50 (HepG2 cells [4]) | IC50 (ACL [5]) | IC50 (HepG2 cells [6]) | IC50 (ACL [7]) | IC50 (ACL [5]; read-out: ACL-ADP-Glo (IC50), 3 nM ACL, 15 μM ATP, 3 μM CoA, 300 μM Citrate) | IC50 (ACL [7]; read-out: ACL-MDH Coupled Assay (IC50), 8 nM ACL, 60 μM CoA Na2, 85 μM Citrate, 250 μM ATP, 250 μM NADH) | SMILES | IC50 (ACC2) | inhibition of propionyl-CoA carboxylase [8] | IC50 (ACC1) | inhibition of pyruvate carboxylase (pyruvate carboxylase)
5 | 1000 to 5000 nM | < 1000 nM | < 1 µM | 1000 to 5000 nM | 50 to 500 nM | 1 to 10 µM | < 50 nM |  |  | O=S(=O)(Nc1cc(-c2ccccc2)ccc1F)c1cc(Cl)cc(Cl)c1O [I-22, 3,5-dichloro-N-(2-fluoro-5-phenylphenyl)-2-hydroxybenzene-1-sulfonamide] |  |  |  | 
6 |  | 1000 to 5000 nM | 1 to 5 µM | 5000 to 20000 nM | 50 to 500 nM | 1 to 10 µM | 50 to 500 nM |  |  | Cc1cc(Cl)c(O)c(S(=O)(=O)Nc2cc(-c3ccccc3)c(F)cc2F)c1 [I-157, 3-chloro-N-(4,6-difluoro-[1,1′-biphenyl]-3-yl)-2-hydroxy-5-methylbenzenesulfonamide] |  |  |  | 
